This passage reports IC50 results from BindingDB's records for doi:10.1016/j.bmcl.2017.09.009 (St. John'S University, 2017).

The nature of data set [1]: Inhibition of ABCG2 in human H460/MX20 cells assessed as potentiation of mitoxantrone induced antiproliferative activity by measuring mitoxantrone IC50 at 1 uM preincubated for 2 hrs followed by mitoxantrone addition measured after 72 hrs by MTT assay (Rvb = 6.161 +/- 0.172 microM).
The nature of data set [2]: Inhibition of ABCG2 in human H460/MX20 cells assessed as potentiation of mitoxantrone induced antiproliferative activity by measuring mitoxantrone IC50 at 3 uM preincubated for 2 hrs followed by mitoxantrone addition measured after 72 hrs by MTT assay (Rvb = 6.161 +/- 0.172 microM). A general note: Formazan colour is commonly taken as a measure of viable cells.
Data set [3] in a line: Inhibition of ABCG2 in human H460/MX20 cells assessed as potentiation of mitoxantrone induced antiproliferative activity by measuring mitoxantrone IC50 at 10 uM preincubated for 2 hrs followed by mitoxantrone addition measured after 72 hrs by MTT assay (Rvb = 6.161 +/- 0.172 microM).
Data set [4] is described as follows: Inhibition of ABCG2 in human H460/MX20 cells assessed as potentiation of mitoxantrone induced antiproliferative activity by measuring mitoxantrone IC50 at 3 uM preincubated for 2 hrs followed by mitoxantrone addition measured after 72 hrs by MTT assay (Rvb = 6.161 +/- 0.172 microM). This is another data set of the same source.
Data set [5] concerns the target T1, Broad substrate specificity ATP-binding cassette transporter ABCG2 (Homo sapiens, UniProt Q9UNQ0).
T1 sequence (Q9UNQ0 whole entry): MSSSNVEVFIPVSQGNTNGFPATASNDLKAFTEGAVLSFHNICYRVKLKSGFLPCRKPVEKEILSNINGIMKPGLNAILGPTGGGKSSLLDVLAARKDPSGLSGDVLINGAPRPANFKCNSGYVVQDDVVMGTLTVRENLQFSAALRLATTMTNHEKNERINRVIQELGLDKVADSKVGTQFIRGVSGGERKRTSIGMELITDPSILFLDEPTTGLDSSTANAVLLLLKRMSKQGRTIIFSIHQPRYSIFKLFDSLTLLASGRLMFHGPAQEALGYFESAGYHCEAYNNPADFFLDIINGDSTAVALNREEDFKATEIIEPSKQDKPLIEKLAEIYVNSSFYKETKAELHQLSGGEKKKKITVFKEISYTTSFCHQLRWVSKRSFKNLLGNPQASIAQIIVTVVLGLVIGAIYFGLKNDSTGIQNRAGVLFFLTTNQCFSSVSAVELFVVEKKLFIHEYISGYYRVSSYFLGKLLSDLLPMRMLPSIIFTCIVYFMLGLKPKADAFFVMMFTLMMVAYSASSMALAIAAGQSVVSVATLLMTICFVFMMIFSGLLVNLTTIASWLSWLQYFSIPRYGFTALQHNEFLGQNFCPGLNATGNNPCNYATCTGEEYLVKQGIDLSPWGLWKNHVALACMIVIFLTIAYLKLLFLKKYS
Nature of the data set: (§1) Inhibition of ABCG2 in human H460/MX20 cells assessed as potentiation of mitoxantrone induced antiproliferative activity by measuring mitoxantrone IC50 at 10 uM preincubated for 2 hrs followed by mitoxantrone addition measured after 72 hrs by MTT assay (Rvb = 6.161 +/- 0.172 microM).

For data set [6], the target named is T1, Broad substrate specificity ATP-binding cassette transporter ABCG2. Put plainly: Inhibition of ABCG2 in human H460/MX20 cells assessed as potentiation of mitoxantrone induced antiproliferative activity by measuring mitoxantrone IC50 at 3 uM preincubated for 2 hrs followed by mitoxantrone addition measured after 72 hrs by MTT assay (Rvb = 6.161 +/- 0.172 microM).

For data set [7] the target is unchanged. Nature of the data set: ChEBML_1696291. Here is the method:
as §1

“And” between values parts separate entries of the source, which are not always exact repeats. Identical values can stand only once.

As to `COc1cccc(-n2nnc(-c3ccccc3NC(=O)c3ccc([N+](=O)[O-])cc3)n2)c1`, the IC50 in data set [1] worked out at 585 nM. For `COc1ccc(-n2nnc(-c3ccccc3NC(=O)c3ccc([N+](=O)[O-])cc3)n2)cc1`, the IC50 in data set [2] is 535 nM; in data set [1] it was 587 nM; in data set [3], 378 nM. Turning to `COc1ccc(C(=O)Nc2ccccc2-c2nnn(-c3ccc(OC)cc3)n2)cc1`, the IC50 in data set [4] is 505 nM; in data set [1], 746 nM; in data set [3], 492 nM.

Consider `CCCc1ccc(NC(=O)c2ccccc2NC(=O)c2ccc(OC)cc2)cc1`, for which the IC50 in data set [3] worked out at 1660 nM. In the case of `CCCc1ccc(NC(=O)c2ccccc2NC(=O)c2ccc([N+](=O)[O-])cc2)cc1`, the IC50 in data set [5] came out at 594 nM; in data set [4], 783 nM; in data set [1], 833 nM.

In the case of `CCCc1ccc(NC(=O)c2ccccc2NC(=O)Nc2ccc(OC)cc2)cc1`, the results for the IC50 in data set [5] and in data set [1] were 985 nM and 3370 nM, respectively.

Regarding `CCCc1ccc(NC(=O)c2ccccc2NC(=O)Nc2ccc(Br)cc2)cc1`, the IC50 was found to be 2120 nM in data set [6] and 2660 nM in data set [1]. With `CCCc1ccc(NC(=O)c2ccccc2NC(=O)Nc2ccccc2[N+](=O)[O-])cc1`, the results for the IC50 in data set [5] and in data set [4] were 1120 nM and 2560 nM, respectively. In the case of `CCCc1ccc(NC(=O)c2ccccc2NC(=O)Nc2ccc([N+](=O)[O-])cc2)cc1`, the IC50 is 482 nM in data set [4] and 622 nM in data set [1]. Turning to `COc1cccc(-n2nnc(-c3ccccc3NC(=O)Nc3ccc(NC(=O)CBr)cc3)n2)c1`, the IC50 in data set [5] was determined as 472 nM; in data set [1] it was 798 nM. With `COc1cccc(-n2nnc(-c3ccccc3NC(=O)Nc3ccc(N=C=S)cc3)n2)c1`, the IC50 in data set [4] is 667 nM. On to `COc1cccc(-n2nnc(-c3ccccc3NC(=O)Nc3ccc(NC(C)=O)cc3)n2)c1`, for which the IC50 in data set [3] stood at 325 nM. Consider `COc1cccc(-n2nnc(-c3ccccc3NC(=O)Nc3ccccc3[N+](=O)[O-])n2)c1`, for which the IC50 was found to be 978 nM in data set [4] and 882 nM in data set [3]. As to `COc1cccc(-n2nnc(-c3ccccc3NC(=O)Nc3ccc([N+](=O)[O-])cc3)n2)c1`, the IC50 in data set [3] was 403 nM. For `COc1cccc(-n2nnc(-c3ccccc3NC(=O)c3ccc(NC(=O)CBr)cc3)n2)c1`, the IC50 in data set [6] turned out to be 446 nM; in data set [3], 283 nM.

Take `COc1cccc(-n2nnc(-c3ccccc3NC(=O)c3ccc(N=[N+]=[N-])cc3)n2)c1`: the results for the IC50 in data set [4] and in data set [1] were 1500 nM and 1620 nM, respectively. Regarding `COc1cccc(-n2nnc(-c3ccccc3NC(=O)c3ccc(NC(C)=O)cc3)n2)c1`, the IC50 in data set [2] turned out to be 1320 nM; in data set [1] it was 1360 nM; in data set [3], 1200 nM. With `COc1cccc(-n2nnc(-c3ccccc3NC(=O)c3ccc(N)cc3)n2)c1`, the values for the IC50 in data set [6] and in data set [3] were 491 nM and 299 nM, respectively. For the compound `COc1cccc(-n2nnc(-c3ccccc3NC(=O)c3ccccc3[N+](=O)[O-])n2)c1`, the IC50 in data set [5] was determined as 1100 nM. As to `COc1cccc(-n2nnc(-c3ccccc3NC(=O)c3cccc([N+](=O)[O-])c3)n2)c1`, the IC50 in data set [1] stood at 1800 nM.

As to `O=C(Nc1ccc([N+](=O)[O-])cc1)Nc1ccccc1C(=O)Nc1ccc(C(F)(F)F)cc1`, the results for the IC50 in data set [7] and in data set [3] were 711 nM and 452 nM, respectively.

Consider `CCCc1ccc(C(=O)Nc2ccccc2-c2nnn(-c3cccc(OC)c3)n2)cc1`, for which, in data set [3], the IC50 came out at 131 nM. Regarding `COc1cccc(-n2nnc(-c3ccccc3NC(=O)c3ccc(N=C=S)cc3)n2)c1`, the IC50 in data set [4] was 1050 nM and 952 nM. On to `COc1cccc(-n2nnc(-c3ccccc3NC(=O)Nc3ccc(N)cc3)n2)c1`, for which the IC50 was found to be 838 nM in data set [1] and 379 nM in data set [3]. Turning to `COc1ccc(-n2nnc(-c3ccccc3NC(=O)Nc3ccc([N+](=O)[O-])cc3)n2)cc1`, the IC50 was determined as 331 nM in data set [5] and 541 nM in data set [4]. In the case of `CCCc1ccc(NC(=O)c2ccccc2NC(=O)Nc2cccc([N+](=O)[O-])c2)cc1`, the IC50 in data set [1] worked out at 651 nM. Take `COc1cccc(-n2nnc(-c3ccccc3NC(=O)Nc3ccc(N=[N+]=[N-])cc3)n2)c1`: the IC50 in data set [1] amounted to 913 nM. Take `COc1ccc2c3c([nH]c2c1)[C@H](C=C(C)C)N1C(=O)[C@@H]2CCCN2C(=O)[C@@H]1C3` [Fumitremorgin C]: the IC50 was 451 nM in data set [4] and 612 nM in data set [1].

A word on the IC50: it is the concentration that gives 50% inhibition.
